# Assay results published in ChEMBL document CHEMBL1201862, “PubChem BioAssay data set” (2004).
# Activity calls are given as the source filed them.
# How the values were obtained:
# [1] = biological target: DNA damage-inducible transcript 3 protein (Mus musculus, UniProt P35639); format: functional, Cricetulus griseus
# [2] = Trypanosoma cruzi growth suppression in host cells – NIH3T3 host cells, beta-gal luminescence, confirmation (AID 2044); format: functional, cell-based;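 further: intracellular parasites grown in NIH/3T3 mouse fibroblasts as host cells; luminescent beta-galactosidase reporter signal from transgenic T. cruzi replicating inside host cells; inhibitors lower the luminescence signal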
# [3] = NIH3T3 cell viability loss – ATP luminescence, mouse fibroblasts, counter-screen, dose response (AID 2010); format: functional, cell-based;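 further: cells exposed to compound for about 90 hours before reading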
# [4] = biological target: Cytochrome P450 2C19 (Homo sapiens, UniProt P33261); test: Cytochrome panel assay with activity outcomes. Panel member name: p450-cyp2c19 Compounds with AC50 equal or less than 10 uM are considered active; format: functional; details: read-out: AC50
# Chain of Cytochrome P450 2C19 (P33261 whole entry): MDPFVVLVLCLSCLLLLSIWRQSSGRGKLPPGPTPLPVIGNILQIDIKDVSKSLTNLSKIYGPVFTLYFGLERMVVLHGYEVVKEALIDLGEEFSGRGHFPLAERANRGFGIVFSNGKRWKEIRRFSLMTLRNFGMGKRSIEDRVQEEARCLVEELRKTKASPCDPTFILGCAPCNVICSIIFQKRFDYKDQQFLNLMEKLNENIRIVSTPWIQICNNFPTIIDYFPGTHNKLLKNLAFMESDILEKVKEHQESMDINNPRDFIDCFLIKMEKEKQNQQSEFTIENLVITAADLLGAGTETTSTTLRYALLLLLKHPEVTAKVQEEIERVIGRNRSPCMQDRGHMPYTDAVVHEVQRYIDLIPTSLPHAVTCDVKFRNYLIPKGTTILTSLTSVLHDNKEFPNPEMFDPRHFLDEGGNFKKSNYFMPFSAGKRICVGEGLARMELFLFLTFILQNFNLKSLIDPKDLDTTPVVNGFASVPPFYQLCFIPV
# [5] = biological target: Cytochrome P450 3A4 (Homo sapiens, UniProt P08684);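 further: CYP3A4 tested as one member of a cytochrome P450 panel screen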
# Chain of Cytochrome P450 3A4 (P08684 whole entry): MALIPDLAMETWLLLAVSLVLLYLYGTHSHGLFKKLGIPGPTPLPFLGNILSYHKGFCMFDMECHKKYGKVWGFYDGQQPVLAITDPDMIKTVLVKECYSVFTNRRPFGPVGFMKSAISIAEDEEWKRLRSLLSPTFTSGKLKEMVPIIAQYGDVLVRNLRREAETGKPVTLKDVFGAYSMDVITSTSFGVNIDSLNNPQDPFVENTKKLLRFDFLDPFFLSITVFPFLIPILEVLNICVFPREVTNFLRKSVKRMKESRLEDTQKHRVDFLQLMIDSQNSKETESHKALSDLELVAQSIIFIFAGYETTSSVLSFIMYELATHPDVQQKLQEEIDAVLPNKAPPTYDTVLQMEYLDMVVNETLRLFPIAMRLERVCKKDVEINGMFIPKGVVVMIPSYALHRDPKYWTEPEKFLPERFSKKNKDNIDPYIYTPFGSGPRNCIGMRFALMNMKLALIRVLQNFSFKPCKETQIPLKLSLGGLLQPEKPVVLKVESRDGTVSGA
# [6] = biological target: T1, Heat shock factor protein 1 (Mus musculus, UniProt P38532); test: enhancement of HSF1-driven luciferase signal – cell-based, NIH3T3, luminescence, dose retest, confirmation (AID 435004); format: functional;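 further: stress induced by proteasome inhibitor MG132 added 30 min after compound; luciferase reporter driven by HSF1 response element in NIH3T3 cells; actives raise luminescence as potentiators of the MG132 stress response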
# T1 sequence (P38532 whole entry): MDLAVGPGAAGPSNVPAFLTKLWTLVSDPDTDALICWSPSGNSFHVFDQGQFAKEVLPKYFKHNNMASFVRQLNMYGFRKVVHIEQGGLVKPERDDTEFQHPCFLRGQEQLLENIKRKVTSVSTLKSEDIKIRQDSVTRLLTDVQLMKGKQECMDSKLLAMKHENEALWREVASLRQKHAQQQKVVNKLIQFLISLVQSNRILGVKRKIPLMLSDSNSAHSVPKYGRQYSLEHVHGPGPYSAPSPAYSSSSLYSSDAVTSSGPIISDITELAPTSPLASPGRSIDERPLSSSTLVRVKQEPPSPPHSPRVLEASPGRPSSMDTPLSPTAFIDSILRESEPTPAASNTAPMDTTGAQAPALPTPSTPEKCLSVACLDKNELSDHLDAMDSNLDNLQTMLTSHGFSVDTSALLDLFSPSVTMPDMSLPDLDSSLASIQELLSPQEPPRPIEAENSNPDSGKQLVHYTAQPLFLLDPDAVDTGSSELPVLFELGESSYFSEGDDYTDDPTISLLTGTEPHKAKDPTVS
# [7] = biological target: T2, Protein RecA (Mycobacterium tuberculosis, UniProt P9WHJ3); test: Fluorescence Cell-Free Homogeneous Dose Retest to Identify Inhibitors of RecA-Intein Splicing Activity. [Related pubchem assays (depositor defined):AID2097, AID2223, AID489010, AID492950]; format: functional
# T2 sequence (P9WHJ3 whole entry): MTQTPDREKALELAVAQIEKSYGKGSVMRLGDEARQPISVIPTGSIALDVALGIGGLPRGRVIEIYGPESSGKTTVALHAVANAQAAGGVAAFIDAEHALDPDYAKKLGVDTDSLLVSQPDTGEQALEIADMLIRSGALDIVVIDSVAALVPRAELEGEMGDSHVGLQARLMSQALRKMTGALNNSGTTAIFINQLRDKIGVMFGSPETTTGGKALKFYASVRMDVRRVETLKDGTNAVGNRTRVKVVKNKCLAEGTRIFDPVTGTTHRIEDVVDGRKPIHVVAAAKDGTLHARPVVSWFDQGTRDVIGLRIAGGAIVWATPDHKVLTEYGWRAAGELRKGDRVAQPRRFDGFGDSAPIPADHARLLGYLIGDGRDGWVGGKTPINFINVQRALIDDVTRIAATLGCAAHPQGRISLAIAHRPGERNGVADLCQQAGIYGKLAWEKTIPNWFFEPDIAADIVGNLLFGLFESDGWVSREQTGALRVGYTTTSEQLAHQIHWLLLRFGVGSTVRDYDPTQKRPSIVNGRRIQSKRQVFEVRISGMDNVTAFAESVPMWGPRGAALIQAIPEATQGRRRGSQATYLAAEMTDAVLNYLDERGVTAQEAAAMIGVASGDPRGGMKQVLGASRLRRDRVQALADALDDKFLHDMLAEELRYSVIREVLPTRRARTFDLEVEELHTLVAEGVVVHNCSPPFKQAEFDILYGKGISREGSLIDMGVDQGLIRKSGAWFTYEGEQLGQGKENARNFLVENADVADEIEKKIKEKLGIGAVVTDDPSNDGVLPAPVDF
# [8] = biological target: T3, Replicative DNA helicase DnaB (Mycobacterium tuberculosis, UniProt P9WMR3); test: DnaB intein splicing inhibitors, dose response, biochemical, cell-free fluorescence (AID 449749); format: functional
# T3 sequence (P9WMR3 whole entry): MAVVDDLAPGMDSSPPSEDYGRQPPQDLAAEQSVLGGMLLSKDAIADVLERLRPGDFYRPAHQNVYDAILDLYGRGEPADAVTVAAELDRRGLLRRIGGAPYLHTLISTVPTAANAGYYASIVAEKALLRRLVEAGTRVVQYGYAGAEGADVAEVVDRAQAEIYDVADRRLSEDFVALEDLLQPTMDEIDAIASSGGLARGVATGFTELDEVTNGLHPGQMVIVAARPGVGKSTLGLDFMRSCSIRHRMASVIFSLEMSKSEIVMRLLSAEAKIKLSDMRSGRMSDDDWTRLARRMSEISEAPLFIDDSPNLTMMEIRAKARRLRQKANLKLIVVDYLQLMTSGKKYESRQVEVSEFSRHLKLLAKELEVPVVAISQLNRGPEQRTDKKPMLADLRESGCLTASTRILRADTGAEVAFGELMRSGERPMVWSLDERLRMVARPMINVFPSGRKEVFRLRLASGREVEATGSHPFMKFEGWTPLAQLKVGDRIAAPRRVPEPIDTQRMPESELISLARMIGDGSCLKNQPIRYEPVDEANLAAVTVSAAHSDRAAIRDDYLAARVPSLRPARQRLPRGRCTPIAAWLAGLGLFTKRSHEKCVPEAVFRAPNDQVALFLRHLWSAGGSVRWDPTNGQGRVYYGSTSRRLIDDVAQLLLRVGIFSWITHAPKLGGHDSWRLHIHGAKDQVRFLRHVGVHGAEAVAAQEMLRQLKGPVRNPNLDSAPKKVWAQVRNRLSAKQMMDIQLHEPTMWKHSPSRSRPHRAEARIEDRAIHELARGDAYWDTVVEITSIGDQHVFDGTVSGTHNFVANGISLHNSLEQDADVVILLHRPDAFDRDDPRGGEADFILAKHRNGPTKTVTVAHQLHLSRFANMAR
# [9] = microbe, parasite or virus in culture; format: functional; details: Mycobacterium tuberculosis
# [10] = cells; format: functional, cell-based
# [11] = tested on: INS1; test: INS-1E survival protection against cytokine death – cell-based, luminescence, retest, dose response (AID 449756); format: functional; details: Rattus norvegicus, INS1;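 further: cell death triggered by IL-1 beta plus TNF-alpha plus IFN-gamma mixture; protective hits raise ATP signal compared with cytokine alone wells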
# [12] = cells; format: functional, cell-based; remark: listed apart in the source
# [13] = THP-1 cell cytotoxicity, dose response, cytotoxicity control for non-replicating M. tuberculosis project (AID 489025); format: functional
# [14] = cells; format: functional
# [15] = biological target: T4, Ubiquitin-conjugating enzyme E2 N (Homo sapiens, UniProt P61088); format: functional;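 further: Dose-response confirmation in a TR-FRET assay detecting UBC13-driven polyubiquitin chain formation, inhibition measured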
# T4 sequence (P61088 whole entry): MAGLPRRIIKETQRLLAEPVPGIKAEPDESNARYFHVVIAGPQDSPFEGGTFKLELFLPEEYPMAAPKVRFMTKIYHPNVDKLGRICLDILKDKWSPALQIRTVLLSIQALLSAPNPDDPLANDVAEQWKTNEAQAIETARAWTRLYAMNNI
# [16] = biological target: T5, Rac GTPase-activating protein 1 (Homo sapiens, UniProt Q9H0H5); test: blockers of MgcRacGAP-driven Rac1 GTP hydrolysis – biochemical, ADP Hunter fluorescence, primary and confirmatory, confirmation (AID 624330); format: functional
# T5 sequence (Q9H0H5 whole entry): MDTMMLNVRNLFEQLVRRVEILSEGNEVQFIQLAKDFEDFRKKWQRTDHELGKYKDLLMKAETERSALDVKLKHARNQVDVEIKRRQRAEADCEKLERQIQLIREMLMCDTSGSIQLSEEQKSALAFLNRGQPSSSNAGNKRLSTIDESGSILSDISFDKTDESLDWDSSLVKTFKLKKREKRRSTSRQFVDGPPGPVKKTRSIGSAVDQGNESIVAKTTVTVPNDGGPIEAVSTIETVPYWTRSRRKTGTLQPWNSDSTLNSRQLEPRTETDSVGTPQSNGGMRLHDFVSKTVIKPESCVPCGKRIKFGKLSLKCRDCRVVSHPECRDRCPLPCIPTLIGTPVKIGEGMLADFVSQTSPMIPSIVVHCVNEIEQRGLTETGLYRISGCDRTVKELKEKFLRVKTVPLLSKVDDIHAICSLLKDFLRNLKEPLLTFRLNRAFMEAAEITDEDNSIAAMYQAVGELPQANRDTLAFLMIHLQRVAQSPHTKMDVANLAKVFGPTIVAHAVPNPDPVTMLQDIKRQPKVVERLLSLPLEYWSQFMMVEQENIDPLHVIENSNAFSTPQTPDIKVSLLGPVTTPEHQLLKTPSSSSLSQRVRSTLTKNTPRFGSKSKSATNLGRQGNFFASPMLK
# [17] = biological target: T6, Bcl-2-related protein A1 (Mus musculus, UniProt Q07440); format: functional;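 further: confirmatory dose–response counterscreen on Bfl-1, used to check hits from a UBC13 polyubiquitin inhibitor campaign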
# T6 sequence (Q07440 whole entry): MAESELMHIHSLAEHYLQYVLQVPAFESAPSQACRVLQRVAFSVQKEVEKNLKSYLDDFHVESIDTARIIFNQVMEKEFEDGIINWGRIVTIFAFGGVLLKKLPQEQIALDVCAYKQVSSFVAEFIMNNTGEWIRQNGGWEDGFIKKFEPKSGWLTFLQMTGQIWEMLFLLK
# [18] = fluconazole-exposed Candida albicans growth modulators – fluorescence, retest, confirmation (AID 2467); format: functional, cell-based
# [19] = MIN6 cell viability loss – mouse insulinoma, cytotoxicity control, dose response (AID 2122); format: functional;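 further: confirmatory high-throughput counterscreen run to flag cytotoxic compounds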
# [20] = NIH-3T3 fibroblast cytotoxicity, dose response, cytotoxicity control, cell-based, fluorescence, Alamar Blue, secondary assay (AID 2327); format: functional;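 further: NIH-3T3 mouse fibroblasts cultured with fluconazole at 8 µg/mL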
# [21] = decrease of insulin promoter-GFP reporter – imaging, high-content screening, mouse beta cells (AID 1628); format: functional; details: MIN6
# [22] = biological target: T7, Streptokinase A (Streptococcus pyogenes serotype M1, UniProt P10520); test: viability-normalized secreted streptokinase activity reduction – plasminogen activation absorbance, OD405, dose response (AID 1914); format: functional, Streptococcus pyogenes M1 GAS;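 further: secreted streptokinase activity via plasminogen activation per viability signal from cell pellet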
# T7 sequence (P10520 whole entry): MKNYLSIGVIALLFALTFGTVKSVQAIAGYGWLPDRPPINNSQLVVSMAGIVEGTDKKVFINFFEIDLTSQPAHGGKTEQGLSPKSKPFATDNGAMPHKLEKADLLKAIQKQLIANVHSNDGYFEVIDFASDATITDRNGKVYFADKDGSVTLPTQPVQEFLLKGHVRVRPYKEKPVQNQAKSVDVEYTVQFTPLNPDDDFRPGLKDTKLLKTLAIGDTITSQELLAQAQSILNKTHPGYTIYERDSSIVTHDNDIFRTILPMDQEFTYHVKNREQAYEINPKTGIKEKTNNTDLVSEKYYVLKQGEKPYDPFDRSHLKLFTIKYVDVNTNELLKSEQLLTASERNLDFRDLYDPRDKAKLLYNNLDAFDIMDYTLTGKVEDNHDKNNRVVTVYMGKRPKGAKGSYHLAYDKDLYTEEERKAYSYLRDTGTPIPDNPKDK
# [23] = tested on: Streptococcus; test: GAS UMAA2166 growth inhibition – luminescence, BacTiterGlo, counter-screen for streptokinase expression inhibitor project, dose response (AID 1915); format: functional, organism-based;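 further: potency for reduction of bacterial viability or growth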
# [24] = tested on: Streptococcus sp. 'group A'; test: Streptococcus pyogenes SK(-)GAS viability under kanamycin – luminescence, BacTiterGlo, confirmation, counter-screen for streptokinase expression inhibitor project, dose response (AID 1900); format: functional, organism-based
# Chain of DNA damage-inducible transcript 3 protein (P35639 whole entry): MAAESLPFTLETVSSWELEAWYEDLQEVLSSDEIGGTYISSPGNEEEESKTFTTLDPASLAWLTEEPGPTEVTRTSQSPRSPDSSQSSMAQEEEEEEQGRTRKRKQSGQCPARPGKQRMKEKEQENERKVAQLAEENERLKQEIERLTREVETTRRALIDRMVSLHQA
smiles,measurement,setting,value
CCOc1ccc2nc(NC(=O)CSc3nnnn3C3CCCCC3)sc2c1,Absolute IC50 (CHOP),[1],10 µM
same,EC50,[2],2.14 µM (active)
same,EC50,[3],> 30 µM (not active)
COCCCN1CCN(c2nnc3n2-c2sc(Br)cc2C(c2ccccc2Cl)=NC3)CC1.CS(=O)(=O)O,AC50,[4],7.08 µM (inconclusive)
same,AC50,[5],inconclusive
Cc1ccccc1C(=O)N1CCN(c2ccc([N+](=O)[O-])c(NCc3ccco3)c2)CC1,AC50,[5],inconclusive
O=C(CCl)N1CCN2C(=O)c3ccccc3C12c1ccc(Cl)cc1 (configuration not stated),EC50,[6],15 µM (active)
same,Absolute IC50 (CHOP),[1],10 µM
same,EC50,[7],1.08 µM (active)
same,AC50,[8],3.96 µM (active)
same,CC50,[9],8.94 µM (active)
COc1cccc(CN2CCC(N(CCc3ccccc3)Cc3ccccc3)CC2)c1OC,EC50,[10],> 350 µM (not active)
same,AC50,[11],11.4 µM (active)
same,EC50,[12],> 350 µM (not active)
same,CC50,[13],> 40 µM (active)
same,IC50,[14],25.2 µM (active)
C#CCOCCOCCOCCNc1nc(N2CCN(C(=O)C([C@@H](C)O)n3cc([C@@H](N)CCCCN)nn3)CC2)nc(N2CCN(C(=O)[C@H](CCCCN)n3cc(CN)nn3)CC2)n1 (some centres not stated),IC50,[15],3.7 µM (active)
same,IC50,[16],171 µM (active)
same,IC50,[17],> 20 µM (inactive)
CC(C)(C)c1ccc(OCc2ccc(C(=O)N/N=C/c3ccc(O)c(O)c3)cc2)cc1,EC50,[18],> 38 µM (not active)
same,AC50,[11],5.45 µM (active)
same,IC50,[19],1.97 µM (active)
same,EC50,[20],2.67 µM (inconclusive)
same,IC50,[21],3.14 µM (active)
O=[N+]([O-])c1ccccc1N/N=C/c1cccc(O)c1O,IC50,[19],3.75 µM (active)
same,IC50,[21],2.74 µM (active)
Cc1cc(N2CCC(C)CC2)nc(-n2nc(C)cc2C)n1,EC50,[22],> 150 µM (not active)
same,CC50,[13],> 40 µM (active)
same,EC50,[23],> 150 µM (not active)
same,IC50,[14],0.15 µM (active)
same,CC50,[9],> 40 µM (active)
same,EC50,[24],7.26 µM (active)
